# Tested on: nine strains of Candida albicans
# Test: Growth of Candida in enrichment broth after 24 hours, clinical strains
# Assay type: cell-based
# Conditions: agent alone, broth pH 4.5, 37° C. 24 hours
# Text: b. Enrichment broth: which contained 1 percent of yeast extract powder, 9 percent of sucrose, 0.025 percent of manganese sulfate (MnSO4.4H2O), 0.058 percent of magnesium sulfate (MgSO4.7H2O), and 0.9 percent of lactic acid, the pH value of the broth was adjusted to 4.5, and the enrichment broth was sterilized for later use;
# (2) Experimental groups: the requirements of aseptic operation technique were strictly followed so to prepare the sterile test tubes;
# a. sodium benzoate group: each test tube contained 5 milliliters enrichment broth, and was added in 0.025 percent (weight/volume) of sodium benzoate;
# b. 2-phenylethanol group: each test tube contained 5 milliliters enrichment broth, and was added in 0.050 percent (weight/volume) of 2-phenylethanol;
# c. sodium propionate group: each test tube contained 5 milliliters enrichment broth, and was added in 0.125 percent (weight/volume) of sodium propionate;
# d. “a group of the combinations of sodium benzoate and sodium propionate”: each test tube contained 5 milliliters enrichment broth, and was added in 0.025 percent (weight/volume) of sodium benzoate and 0.125 percent (weight/volume) of sodium propionate;
# e. “a group of the combinations of sodium benzoate and 2-phenylethanol”: each test tube contained 5 milliliters enrichment broth, and was added in 0.025 percent (weight/volume) of sodium benzoate and 0.050 percent (weight/volume) of 2-phenylethanol;
# f. “a group of the combinations of sodium propionate and 2-phenylethanol”: each test tube contained 5 milliliters enrichment broth, and was added in 0.125 percent (weight/volume) of sodium propionate and 0.050 percent (weight/volume) of 2-phenylethanol;
# g. “a group of the combinations of sodium benzoate, sodium propionate and 2-phenylethanol”: each test tube contained 5 milliliters enrichment broth, and was added in 0.025 percent (weight/volume) of sodium benzoate, 0.125 percent (weight/volume) of sodium propionate and 0.050 percent (weight/volume) of 2-phenylethanol;
# h. positive control: the control tube of enrichment broth without adding in 2-phenylethanol, sodium benzoate, and sodium propionate; but inoculated the suspension of Candida albicans;
# i. negative control: the control tube of enrichment broth without adding in 2-phenylethanol, sodium benzoate, and sodium propionate; and without inoculating Candida albicans;
# The requirements for aseptic operation technique were strictly followed to prepare the suspension of organism. The colonies of each strain of Candida albicans organism were diluted with physiological saline respectively. The turbidities of the suspensions of Candida albicans organism were adjusted to 0.5 MCF (about 10^8 CFU/ml) by a turbidimeter. 1 milliliter of the 0.5 MCF organism suspension was added into 9 milliliters of enrichment broth. Each suspension was diluted for ten times to contain 10^7 CFU/ml of organisms.
# the requirements for aseptic technique were strictly followed to take 100 microliters of the prepared organism suspension respectively and to add the suspension into the test tubes from a to h as well as the positive control tube. No organism suspension was added into the negative control tube i.
# The above tubes were cultured in a biochemical incubator at 37° C. for 24 hours. Then the growth of Candida in each tube was observed and recorded.
# Remark: “+” means the growth of organisms; “−” means no growth of organisms.
SMILES,number of the nine Candida albicans strains that grew (0.050 percent (weight/volume)),number of the nine Candida albicans strains that grew (0.125 percent (weight/volume))
OCCc1ccccc1 [2-phenylethanol],seven,–
CCC(=O)[O-].[Na+] [sodium propionate],–,six
